According to ChEMBL document CHEMBL4706518, “Discovery of MGS0274, an ester prodrug of a metabotropic glutamate receptor 2/3 agonist with improved oral bioavailability” (Eur J Med Chem, 2020):
The source made the active and inactive calls. The calls are words filed in the database; no cut-off is given here.

Key:
[1] = target: Muscarinic acetylcholine receptor M4 (Homo sapiens) (UniProt P08173); assay: Binding affinity to muscarinic M4 (unknown origin) 10 umol/L by radioligand binding assay; conditions: dose 10.0 µmol/L
[2] = target: Type-2 angiotensin II receptor (Homo sapiens) (UniProt P50052); assay: Binding affinity to AT2 receptor (unknown origin) 10 umol/L by radioligand binding assay; conditions: dose 10.0 µmol/L
[3] = target: Muscarinic acetylcholine receptor M2 (Homo sapiens) (UniProt P08172); assay: Binding affinity to muscarinic M2 (unknown origin) 10 umol/L by radioligand binding assay; conditions: dose 10.0 µmol/L
[4] = target: Alpha-2A adrenergic receptor (Homo sapiens) (UniProt P08913); assay: Binding affinity to alpha2A adrenoreceptor (unknown origin) 10 umol/L by radioligand binding assay; conditions: dose 10.0 µmol/L
Chain of Alpha-2A adrenergic receptor (Homo sapiens) (P08913 whole entry): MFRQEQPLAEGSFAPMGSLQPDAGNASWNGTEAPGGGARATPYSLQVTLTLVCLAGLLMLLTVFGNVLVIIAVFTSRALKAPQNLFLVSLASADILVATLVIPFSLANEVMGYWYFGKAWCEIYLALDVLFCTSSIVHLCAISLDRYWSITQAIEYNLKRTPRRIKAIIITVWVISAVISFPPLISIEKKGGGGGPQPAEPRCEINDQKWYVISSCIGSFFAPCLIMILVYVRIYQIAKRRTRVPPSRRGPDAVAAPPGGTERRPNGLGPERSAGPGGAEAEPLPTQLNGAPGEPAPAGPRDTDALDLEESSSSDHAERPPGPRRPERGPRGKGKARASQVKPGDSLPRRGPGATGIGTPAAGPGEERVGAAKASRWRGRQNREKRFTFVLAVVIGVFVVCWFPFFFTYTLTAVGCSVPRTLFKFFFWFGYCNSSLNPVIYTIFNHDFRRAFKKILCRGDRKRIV

[5] = target: Glucocorticoid receptor (Homo sapiens) (UniProt P04150); assay: Binding affinity to glucocorticoid receptor (unknown origin) 10 umol/L by radioligand binding assay; conditions: dose 10.0 µmol/L
Chain of Glucocorticoid receptor (Homo sapiens) (P04150 whole entry): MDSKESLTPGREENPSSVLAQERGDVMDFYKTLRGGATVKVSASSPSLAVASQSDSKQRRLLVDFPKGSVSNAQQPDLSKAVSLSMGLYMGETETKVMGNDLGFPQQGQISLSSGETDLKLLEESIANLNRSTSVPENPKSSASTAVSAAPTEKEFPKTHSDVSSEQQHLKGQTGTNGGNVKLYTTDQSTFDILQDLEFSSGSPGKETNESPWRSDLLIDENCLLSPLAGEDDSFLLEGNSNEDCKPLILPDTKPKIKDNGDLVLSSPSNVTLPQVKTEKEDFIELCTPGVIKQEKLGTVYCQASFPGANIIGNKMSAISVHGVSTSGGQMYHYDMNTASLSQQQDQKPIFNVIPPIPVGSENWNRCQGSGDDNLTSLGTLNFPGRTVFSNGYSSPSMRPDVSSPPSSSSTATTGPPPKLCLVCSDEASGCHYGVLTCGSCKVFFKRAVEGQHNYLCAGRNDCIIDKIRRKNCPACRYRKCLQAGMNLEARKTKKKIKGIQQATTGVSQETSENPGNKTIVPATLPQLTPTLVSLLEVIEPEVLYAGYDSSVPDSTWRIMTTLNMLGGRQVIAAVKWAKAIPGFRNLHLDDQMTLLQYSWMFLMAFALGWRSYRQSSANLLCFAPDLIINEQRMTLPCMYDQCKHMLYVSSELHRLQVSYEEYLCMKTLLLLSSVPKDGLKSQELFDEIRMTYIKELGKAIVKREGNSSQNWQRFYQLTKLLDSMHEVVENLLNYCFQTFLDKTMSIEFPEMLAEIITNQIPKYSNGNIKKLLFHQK

Homo sapiens [6] = species: Homo sapiens; assay: Binding affinity to AMPA receptor (unknown origin) 10 umol/L by radioligand binding assay; conditions: dose 10.0 µmol/L
Homo sapiens [7] = species: Homo sapiens; assay: Binding affinity to NMDA receptor agonist site (unknown origin) 10 umol/L by radioligand binding assay; conditions: dose 10.0 µmol/L
[8] = target: Sodium-dependent noradrenaline transporter (Homo sapiens) (UniProt P23975); assay: Binding affinity to norepinephrine transporter (unknown origin) 10 umol/L by radioligand binding assay; conditions: dose 10.0 µmol/L
Chain of Sodium-dependent noradrenaline transporter (Homo sapiens) (P23975 whole entry): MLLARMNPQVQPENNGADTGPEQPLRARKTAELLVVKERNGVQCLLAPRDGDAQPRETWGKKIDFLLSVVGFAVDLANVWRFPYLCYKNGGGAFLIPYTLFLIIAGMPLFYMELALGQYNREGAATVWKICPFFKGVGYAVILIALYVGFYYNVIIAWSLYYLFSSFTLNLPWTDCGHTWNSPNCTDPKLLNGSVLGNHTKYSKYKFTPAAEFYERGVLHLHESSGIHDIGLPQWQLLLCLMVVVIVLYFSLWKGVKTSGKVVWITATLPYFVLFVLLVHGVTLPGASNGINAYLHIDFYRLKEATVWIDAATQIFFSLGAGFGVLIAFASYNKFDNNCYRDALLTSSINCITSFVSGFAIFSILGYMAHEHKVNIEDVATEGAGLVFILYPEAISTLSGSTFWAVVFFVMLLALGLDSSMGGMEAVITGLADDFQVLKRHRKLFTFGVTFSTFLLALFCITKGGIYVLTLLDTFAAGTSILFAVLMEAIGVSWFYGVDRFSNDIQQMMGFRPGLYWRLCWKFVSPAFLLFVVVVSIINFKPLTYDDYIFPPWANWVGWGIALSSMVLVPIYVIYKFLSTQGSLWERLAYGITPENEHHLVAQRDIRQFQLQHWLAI

[9] = target: Cannabinoid receptor 2 (Homo sapiens) (UniProt P34972); assay: Binding affinity to CB2 (unknown origin) 10 umol/L by radioligand binding assay; conditions: dose 10.0 µmol/L
Chain of Cannabinoid receptor 2 (Homo sapiens) (P34972 whole entry): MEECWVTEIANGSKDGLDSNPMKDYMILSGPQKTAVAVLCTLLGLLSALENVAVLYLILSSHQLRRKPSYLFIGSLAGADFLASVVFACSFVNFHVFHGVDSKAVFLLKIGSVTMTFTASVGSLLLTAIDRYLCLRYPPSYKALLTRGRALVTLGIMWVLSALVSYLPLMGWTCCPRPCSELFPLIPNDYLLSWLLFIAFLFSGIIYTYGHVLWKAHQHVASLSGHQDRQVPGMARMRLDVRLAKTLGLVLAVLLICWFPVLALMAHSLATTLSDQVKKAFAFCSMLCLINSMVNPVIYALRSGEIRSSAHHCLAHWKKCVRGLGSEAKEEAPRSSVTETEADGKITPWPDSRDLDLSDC

[10] = target: Vasoactive intestinal polypeptide receptor 1 (Homo sapiens) (UniProt P32241); assay: Binding affinity to VIP1 receptor (unknown origin) 10 umol/L by radioligand binding assay; conditions: dose 10.0 µmol/L
[11] = target: Nociceptin receptor (Homo sapiens) (UniProt P41146); assay: Binding affinity to ORL1 receptor (unknown origin) 10 umol/L by radioligand binding assay; conditions: dose 10.0 µmol/L
Homo sapiens [12] = species: Homo sapiens; assay: Binding affinity to ATP-sensitive inward rectifier potassium channel (unknown origin) 10 umol/L by radioligand binding assay; conditions: dose 10.0 µmol/L
[13] = target: Sigma non-opioid intracellular receptor 1 (Homo sapiens) (UniProt Q99720); assay: Binding affinity to sigma1 receptor (unknown origin) 10 umol/L by radioligand binding assay; conditions: dose 10.0 µmol/L
Chain of Sigma non-opioid intracellular receptor 1 (Homo sapiens) (Q99720 whole entry): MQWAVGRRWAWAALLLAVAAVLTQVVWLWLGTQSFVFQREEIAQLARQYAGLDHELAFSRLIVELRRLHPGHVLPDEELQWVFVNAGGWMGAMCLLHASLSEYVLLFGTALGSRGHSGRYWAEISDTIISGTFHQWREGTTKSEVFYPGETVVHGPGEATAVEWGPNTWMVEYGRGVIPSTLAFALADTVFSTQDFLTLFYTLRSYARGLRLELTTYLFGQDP

[14] = target: Substance-K receptor (Homo sapiens) (UniProt P21452); assay: Binding affinity to NK2 receptor (unknown origin) 10 umol/L by radioligand binding assay; conditions: dose 10.0 µmol/L
[15] = target: Vasopressin V1b receptor (Homo sapiens) (UniProt P47901); assay: Binding affinity to Vasopressin V1b receptor (unknown origin) 10 umol/L by radioligand binding assay; conditions: dose 10.0 µmol/L
[16] = target: B1 bradykinin receptor (Homo sapiens) (UniProt P46663); assay: Binding affinity to B1 receptor (unknown origin) 10 umol/L by radioligand binding assay; conditions: dose 10.0 µmol/L
Chain of B1 bradykinin receptor (Homo sapiens) (P46663 whole entry): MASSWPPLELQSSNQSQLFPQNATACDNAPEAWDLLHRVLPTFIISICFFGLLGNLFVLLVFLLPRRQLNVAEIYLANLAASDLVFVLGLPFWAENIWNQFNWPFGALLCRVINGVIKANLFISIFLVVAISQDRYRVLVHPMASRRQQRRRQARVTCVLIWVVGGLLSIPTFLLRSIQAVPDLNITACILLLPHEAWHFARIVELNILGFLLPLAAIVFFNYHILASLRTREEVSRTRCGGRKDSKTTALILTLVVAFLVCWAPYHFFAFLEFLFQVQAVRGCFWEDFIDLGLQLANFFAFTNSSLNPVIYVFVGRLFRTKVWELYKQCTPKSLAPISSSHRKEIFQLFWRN

[17] = target: 5-hydroxytryptamine receptor 2A (Homo sapiens) (UniProt P28223); assay: Binding affinity to 5-HT2A receptor (unknown origin) 10 umol/L by radioligand binding assay; conditions: dose 10.0 µmol/L
[18] = target: B2 bradykinin receptor (Homo sapiens) (UniProt P30411); assay: Binding affinity to B2 receptor (unknown origin) 10 umol/L by radioligand binding assay; conditions: dose 10.0 µmol/L
Homo sapiens [19] = species: Homo sapiens; assay: Binding affinity to estrogen receptor (unknown origin) 10 umol/L by radioligand binding assay; conditions: dose 10.0 µmol/L
[20] = target: Type-1 angiotensin II receptor (Homo sapiens) (UniProt P30556); assay: Binding affinity to AT1 receptor (unknown origin) 10 umol/L by radioligand binding assay; conditions: dose 10.0 µmol/L
Homo sapiens [21] = species: Homo sapiens; assay: Binding affinity to Small conductance calcium-activated potassium channel (unknown origin) 10 umol/L by radioligand binding assay; conditions: dose 10.0 µmol/L
[22] = target: Alpha-1B adrenergic receptor (Homo sapiens) (UniProt P35368); assay: Binding affinity to alpha1B adrenoreceptor (unknown origin) 10 umol/L by radioligand binding assay; conditions: dose 10.0 µmol/L
[23] = target: Gastrin/cholecystokinin type B receptor (Homo sapiens) (UniProt P32239); assay: Binding affinity to CCKB (unknown origin) 10 umol/L by radioligand binding assay; conditions: dose 10.0 µmol/L
Homo sapiens [24] = species: Homo sapiens; assay: Binding affinity to D4.2 receptor (unknown origin) 10 umol/L by radioligand binding assay; conditions: dose 10.0 µmol/L
Homo sapiens [25] = species: Homo sapiens; assay: Binding affinity to Kainate receptor (unknown origin) 10 umol/L by radioligand binding assay; conditions: dose 10.0 µmol/L
[26] = target: Endothelin receptor type B (Homo sapiens) (UniProt P24530); assay: Binding affinity to ETB receptor (unknown origin) 10 umol/L by radioligand binding assay; conditions: dose 10.0 µmol/L
[27] = target: Adenosine receptor A1 (Homo sapiens) (UniProt P30542); assay: Binding affinity to A1 receptor (unknown origin) at 10 umol/L by radioligand binding assay; conditions: dose 10.0 µmol/L
[28] = target: Prostaglandin E2 receptor EP2 subtype (Homo sapiens) (UniProt P43116); assay: Binding affinity to Prostanoid EP2 receptor (unknown origin) 10 umol/L by radioligand binding assay; conditions: dose 10.0 µmol/L
Homo sapiens [29] = species: Homo sapiens; assay: Binding affinity to Potassium voltage-gated channel (unknown origin) 10 umol/L by radioligand binding assay; conditions: dose 10.0 µmol/L
[30] = target: Mu-type opioid receptor (Homo sapiens) (UniProt P35372); assay: Binding affinity to mu receptor (unknown origin) 10 umol/L by radioligand binding assay; conditions: dose 10.0 µmol/L
Chain of Mu-type opioid receptor (Homo sapiens) (P35372 whole entry): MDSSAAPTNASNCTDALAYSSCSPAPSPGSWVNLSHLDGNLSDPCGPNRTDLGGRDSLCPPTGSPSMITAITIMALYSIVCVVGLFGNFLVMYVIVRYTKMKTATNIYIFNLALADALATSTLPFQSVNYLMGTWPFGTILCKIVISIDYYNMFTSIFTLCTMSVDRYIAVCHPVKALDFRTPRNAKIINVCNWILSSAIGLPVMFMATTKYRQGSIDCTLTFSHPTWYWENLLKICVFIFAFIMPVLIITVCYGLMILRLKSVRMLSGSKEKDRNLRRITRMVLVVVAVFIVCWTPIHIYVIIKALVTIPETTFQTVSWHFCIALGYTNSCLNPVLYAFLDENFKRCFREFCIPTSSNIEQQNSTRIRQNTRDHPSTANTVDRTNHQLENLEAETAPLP

[31] = target: Adenosine receptor A3 (Homo sapiens) (UniProt P0DMS8); assay: Binding affinity to A3 receptor (unknown origin) 10 umol/L by radioligand binding assay; conditions: dose 10.0 µmol/L
[32] = target: 5-hydroxytryptamine receptor 1A (Homo sapiens) (UniProt P08908); assay: Binding affinity to 5-HT1A receptor (unknown origin) 10 umol/L by radioligand binding assay; conditions: dose 10.0 µmol/L
[33] = target: 5-hydroxytryptamine receptor 3A (Homo sapiens) (UniProt P46098); assay: Binding affinity to 5-HT3 receptor (unknown origin) 10 umol/L by radioligand binding assay; conditions: dose 10.0 µmol/L
Chain of 5-hydroxytryptamine receptor 3A (Homo sapiens) (P46098 whole entry): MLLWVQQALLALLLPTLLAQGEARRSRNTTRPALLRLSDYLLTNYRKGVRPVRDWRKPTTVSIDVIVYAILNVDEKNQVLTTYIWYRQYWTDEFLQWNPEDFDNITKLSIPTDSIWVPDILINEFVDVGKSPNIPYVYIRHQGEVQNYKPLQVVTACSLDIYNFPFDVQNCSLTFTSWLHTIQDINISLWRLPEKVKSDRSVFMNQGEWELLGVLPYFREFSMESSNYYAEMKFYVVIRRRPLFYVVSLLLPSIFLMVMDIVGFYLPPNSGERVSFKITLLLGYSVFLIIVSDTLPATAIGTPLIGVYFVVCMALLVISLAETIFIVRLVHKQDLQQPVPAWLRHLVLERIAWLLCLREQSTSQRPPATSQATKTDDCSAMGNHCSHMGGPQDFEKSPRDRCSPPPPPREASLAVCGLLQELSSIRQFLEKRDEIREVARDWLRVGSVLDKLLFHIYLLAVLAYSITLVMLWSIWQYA

[34] = target: Melatonin receptor type 1A (Homo sapiens) (UniProt P48039); assay: Binding affinity to MT1 receptor (unknown origin) 10 umol/L by radioligand binding assay; conditions: dose 10.0 µmol/L
[35] = target: Alpha-2C adrenergic receptor (Homo sapiens) (UniProt P18825); assay: Binding affinity to alpha2C adrenoreceptor (unknown origin) 10 umol/L by radioligand binding assay; conditions: dose 10.0 µmol/L
[36] = target: Neuropeptide Y receptor type 2 (Homo sapiens) (UniProt P49146); assay: Binding affinity to Y2 receptor (unknown origin) 10 umol/L by radioligand binding assay; conditions: dose 10.0 µmol/L
Chain of Neuropeptide Y receptor type 2 (Homo sapiens) (P49146 whole entry): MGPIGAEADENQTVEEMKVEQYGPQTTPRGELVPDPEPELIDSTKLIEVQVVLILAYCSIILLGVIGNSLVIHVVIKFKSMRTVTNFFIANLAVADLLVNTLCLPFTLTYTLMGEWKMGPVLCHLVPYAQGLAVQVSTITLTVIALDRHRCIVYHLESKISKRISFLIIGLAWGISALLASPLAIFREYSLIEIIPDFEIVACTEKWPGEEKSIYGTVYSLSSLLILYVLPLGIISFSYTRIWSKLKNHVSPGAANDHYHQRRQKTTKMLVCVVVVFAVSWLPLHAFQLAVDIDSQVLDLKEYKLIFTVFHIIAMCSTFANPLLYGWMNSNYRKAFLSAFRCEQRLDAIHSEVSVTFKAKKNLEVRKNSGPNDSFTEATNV

Homo sapiens [37] = species: Homo sapiens; assay: Binding affinity to NMDA receptor glycine site (unknown origin) 10 umol/L by radioligand binding assay; conditions: dose 10.0 µmol/L
[38] = target: Adenosine receptor A2a (Homo sapiens) (UniProt P29274); assay: Binding affinity to A2a receptor (unknown origin) at 10 umol/L by radioligand binding assay; conditions: dose 10.0 µmol/L
[39] = target: Substance-P receptor (Homo sapiens) (UniProt P25103); assay: Binding affinity to NK1 receptor (unknown origin) 10 umol/L by radioligand binding assay; conditions: dose 10.0 µmol/L
Chain of Substance-P receptor (Homo sapiens) (P25103 whole entry): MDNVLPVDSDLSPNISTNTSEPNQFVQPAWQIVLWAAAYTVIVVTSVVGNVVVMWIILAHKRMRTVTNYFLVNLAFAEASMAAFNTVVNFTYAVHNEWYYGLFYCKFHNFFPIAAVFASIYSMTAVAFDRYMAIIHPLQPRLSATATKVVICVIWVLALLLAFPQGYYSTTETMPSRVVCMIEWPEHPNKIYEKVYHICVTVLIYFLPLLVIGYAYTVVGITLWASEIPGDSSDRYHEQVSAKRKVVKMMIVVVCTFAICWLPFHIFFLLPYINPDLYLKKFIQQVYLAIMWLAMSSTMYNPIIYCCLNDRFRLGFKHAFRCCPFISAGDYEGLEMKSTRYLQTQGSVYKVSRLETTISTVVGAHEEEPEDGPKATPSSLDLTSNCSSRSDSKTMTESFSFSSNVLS

Homo sapiens [40] = species: Homo sapiens; assay: Binding affinity to Vasopressin V1 receptor (unknown origin) 10 umol/L by radioligand binding assay; conditions: dose 10.0 µmol/L
Homo sapiens [41] = species: Homo sapiens; assay: Binding affinity to adenosine transporter (unknown origin) at 10 umol/L by radioligand binding assay; conditions: dose 10.0 µmol/L
[42] = target: D(1B) dopamine receptor (Homo sapiens) (UniProt P21918); assay: Binding affinity to D5 receptor (unknown origin) 10 umol/L by radioligand binding assay; conditions: dose 10.0 µmol/L
Chain of D(1B) dopamine receptor (Homo sapiens) (P21918 whole entry): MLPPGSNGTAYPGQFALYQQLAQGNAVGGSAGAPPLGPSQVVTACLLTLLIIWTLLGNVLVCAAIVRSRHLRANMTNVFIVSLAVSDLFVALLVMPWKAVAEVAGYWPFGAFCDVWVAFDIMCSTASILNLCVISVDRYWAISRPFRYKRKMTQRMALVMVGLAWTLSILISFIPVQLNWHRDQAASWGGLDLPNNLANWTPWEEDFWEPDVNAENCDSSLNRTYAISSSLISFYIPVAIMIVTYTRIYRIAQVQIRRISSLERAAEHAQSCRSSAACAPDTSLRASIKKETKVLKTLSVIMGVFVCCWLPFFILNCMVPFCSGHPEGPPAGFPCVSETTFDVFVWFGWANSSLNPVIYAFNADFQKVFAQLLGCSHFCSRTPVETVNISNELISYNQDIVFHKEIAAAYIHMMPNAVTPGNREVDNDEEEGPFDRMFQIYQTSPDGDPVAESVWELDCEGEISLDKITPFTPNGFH

[43] = target: Voltage-gated L-type calcium channel (Homo sapiens, UniProt Q13936+Q13698+Q01668+O60840); assay: Binding affinity to Voltage-dependent L-type calcium channel benzothiazepine site (unknown origin) 10 umol/L by radioligand binding assay; type: protein assay; conditions: 10 µM, dose 10 µmol/L

**Q.** Which results are given for `CC(C)[C@@H]1CC[C@@H](C)C[C@H]1OC(=O)O[C@@H](C)OC(=O)[C@H]1[C@@H]2C[C@H](F)[C@@](N)(C(=O)O)[C@@H]21`?
**A.** Activity [1]: inactive; Activity [2]: inactive; Activity [3]: inactive; Activity [4]: inactive; Activity [5]: inactive; Activity (Homo sapiens [6]): inactive; Activity (Homo sapiens [7]): inactive; Activity [8]: inactive; Activity [9]: inactive; Activity [10]: inactive; Activity [11]: inactive; Activity (Homo sapiens [12]): inactive; Activity [13]: inactive; Activity [14]: inactive; Activity [15]: inactive; Activity [16]: inactive; Activity [17]: inactive; Activity [18]: inactive; Activity (Homo sapiens [19]): inactive; Activity [20]: inactive; Activity (Homo sapiens [21]): inactive; Activity [22]: inactive; Activity [23]: inactive; Activity (Homo sapiens [24]): inactive; Activity (Homo sapiens [25]): inactive; Activity [26]: inactive; Activity [27]: inactive; Activity [28]: inactive; Activity (Homo sapiens [29]): inactive; Activity [30]: inactive; Activity [31]: inactive; Activity [32]: inactive; Activity [33]: inactive; Activity [34]: inactive; Activity [35]: inactive; Activity [36]: inactive; Activity (Homo sapiens [37]): inactive; Activity [38]: inactive; Activity [39]: inactive; Activity (Homo sapiens [40]): inactive; Activity (Homo sapiens [41]): inactive; Activity [42]: inactive; Activity [43]: Not Active

**Q.** What does the source list for `N[C@]1(C(=O)O)[C@H]2[C@@H](C[C@@H]1F)[C@@H]2C(=O)O`?
**A.** Activity [1]: inactive; Activity [2]: inactive; Activity [3]: inactive; Activity [4]: inactive; Activity [5]: inactive; Activity (Homo sapiens [6]): inactive; Activity (Homo sapiens [7]): inactive; Activity [8]: inactive; Activity [9]: inactive; Activity [10]: inactive; Activity [11]: inactive; Activity (Homo sapiens [12]): inactive; Activity [13]: inactive; Activity [14]: inactive; Activity [15]: inactive; Activity [16]: inactive; Activity [17]: inactive; Activity [18]: inactive; Activity (Homo sapiens [19]): inactive; Activity [20]: inactive; Activity (Homo sapiens [21]): inactive; Activity [22]: inactive; Activity [23]: inactive; Activity (Homo sapiens [24]): inactive; Activity (Homo sapiens [25]): inactive; Activity [26]: inactive; Activity [27]: inactive; Activity [28]: inactive; Activity (Homo sapiens [29]): inactive; Activity [30]: inactive; Activity [31]: inactive; Activity [32]: inactive; Activity [33]: inactive; Activity [34]: inactive; Activity [35]: inactive; Activity [36]: inactive; Activity (Homo sapiens [37]): inactive; Activity [38]: inactive; Activity [39]: inactive; Activity (Homo sapiens [40]): inactive; Activity (Homo sapiens [41]): inactive; Activity [42]: inactive; Activity [43]: Not Active
